In patent EP4678643A1, “KRAS INHIBITOR COMPOUND, PHARMACEUTICAL COMPOSITION THEREOF, AND USE THEREOF” (Sunshine Lake Pharma Co., Ltd., priority 2023, dated 2024):
Like-named read-outs stand apart in the source and are kept apart here.

What was measured:
[1] = system: pERK in MKN1 cells (KRAS WTdep); test: Inhibitory effect on intracellular pERK by In-Cell Western assay, MKN1; format: cell-based; details: Homo sapiens, MKN-1, pERK inhibition, compound incubation 3 h
Method: (§1) 1. Determination of Inhibitory Effect on Intracellular pERK by In-Cell Western Assay
(§2) (1) On the first day, the following cells were revived and cultured with the corresponding culture medium and incubated at 37 °C, 5% CO2 until confluence.
(§3) (2) On the third day, the culture medium was removed, the cells were rinsed once with DPBS, 2 mL of TrypLE™ trypsin was added for digestion, and the cells were placed at room temperature until the cells detached. (3) 5 mL fresh culture medium was added to resuspend cells to terminate the digestion, and the cells were gently pipetted and centrifuged at 1000 rpm for 5 minutes at room temperature. (4) The supernatant was removed, and 5 mL fresh culture medium was added to resuspend the cells and count cells. (5) The cells were plated in a 384-well plate with appropriate cell concentration by adjusting with complete culture medium and incubated at 37 °C, 5% CO2 for overnight. (6) 200 nL of the prepared serial dilution compound (DMSO final concentration was 0.5%) was added and incubated at 37 °C, CO2 for 3 h (HPAC cell lines for 1 h). (7) The cells were fixed. (8) The cells were washed twice with PBS. (9) The blocking solution was added and the cells were incubated at room temperature for 1 h. (10) The blocking solution was removed, and the primary antibody (phospho-ERK Rabbit mAb + GAPDH (D4C6R) Mouse mAb) was added and the cells were incubated at 4 °C for overnight. (11) The cells were washed twice with PBST (PBS + 0.05% Tween 20) for 2 minutes each time. (12) PBST was removed and secondary antibody (IRDye 800CW Goat anti-Rabbit IgG (H+L) + IRDye 680RD Goat anti Mouse IgG (H+L)) was added and incubated away from light at room temperature. (14) Secondary antibody was discarded and the cell was washed twice with PBST, 2 minutes each time. (15) 384-well plate was inverted and centrifuged at 1000 rpm at room temperature for 1 minute, and the 384-well plate was scanned with Odyssey CLx. (16) Data analysis: • a) Assay stability check was peformed by using DMSO and reference control data: [formula] [formula] • b) nonlinear fitting of Compound IC50: Y = Bottom + (Top−Bottom)/(1+10^(∧)((LogIC50−X)×HillSlope)). [formula]

[2] = system: pERK in H358 cells (KRAS p.G12C); test: Inhibitory effect on intracellular pERK by In-Cell Western assay, H358; format: cell-based; details: Homo sapiens, NCI-H358, pERK inhibition, compound incubation 3 h
Method: as §1, §2, §3

KRAS G12D-GTP & SOS1 = KRAS G12D-GTP & SOS1 (Homo sapiens, UniProt P01116, G12D); test: KRAS G12D/SOS1 Binding Assay (HTRF); details: competitive binding, 665/615 nm ratio
Chain of KRAS G12D-GTP & SOS1 (P01116 1-188 isoform P01116-2 G12D): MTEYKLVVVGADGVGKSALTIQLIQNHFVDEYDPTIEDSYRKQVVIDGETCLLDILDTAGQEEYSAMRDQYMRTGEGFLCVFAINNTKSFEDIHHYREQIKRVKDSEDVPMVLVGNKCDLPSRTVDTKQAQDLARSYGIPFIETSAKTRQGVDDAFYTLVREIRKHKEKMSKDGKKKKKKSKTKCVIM
Source text: 3. KRAS G12D/SOS1 Binding Assay

[3] = system: pERK in HPAC cells (KRAS p.G12D); test: Inhibitory effect on intracellular pERK by In-Cell Western assay, HPAC; format: cell-based; details: Homo sapiens, pERK inhibition, compound incubation 1 h, read-out: HPAC, IC50 (nM) KRASp.G12D
Method: as §1, §2
as §3, with “[formula] • b) nonlinear fitting of Compound IC50: Y = Bottom + (Top−Bottom)/(1+10^(∧)((LogIC50−X)×HillSlope)). [formula]” left out

KRAS G12D-GTP & cRAF = KRAS G12D-GTP & cRAF (Homo sapiens, UniProt P01116, G12D); test: KRAS G12D/cRAF Binding Assay (HTRF); details: competitive binding, 665/615 nm ratio
Chain of KRAS G12D-GTP & cRAF (P01116 1-188 isoform P01116-2 G12D): as above
Source text: 2. KRAS G12D/cRAF Binding Assay

[4] = system: pERK in NCI-H727 cells (KRAS p.G12V); test: Inhibitory effect on intracellular pERK by In-Cell Western assay, NCI-H727; format: cell-based; details: Homo sapiens, pERK inhibition, compound incubation 3 h
Method: as §1, §2
as §3, with “[formula] • b) nonlinear fitting of Compound IC50: Y = Bottom + (Top−Bottom)/(1+10^(∧)((LogIC50−X)×HillSlope)). [formula]” left out

[5] = system: pERK in AGS cells (KRAS G12D); test: Inhibitory effect on intracellular pERK by In-Cell Western assay, AGS; format: cell-based; details: pERK inhibition, compound incubation 3 h, read-out: AGS, IC50 (nM) KRAS p.G12D
Method: as §1, §2
as §3, with “CLx.” for “CLx. (16) Data analysis: • a) Assay stability check was peformed by using DMSO and reference control data: [formula] [formula] • b) nonlinear fitting of Compound IC50: Y = Bottom + (Top−Bottom)/(1+10^(∧)((LogIC50−X)×HillSlope)). [formula]”

[6] = system: pERK in A549 cells (KRAS p.G12S); test: Inhibitory effect on intracellular pERK by In-Cell Western assay, A549; format: cell-based; details: Homo sapiens, pERK inhibition, compound incubation 3 h
Method: as §1, §2, §3

[7] = system: pERK in HCT 116 cells (KRAS p.G13D); test: Inhibitory effect on intracellular pERK by In-Cell Western assay, HCT 116; format: cell-based; details: Homo sapiens, pERK inhibition, compound incubation 3 h
Method: as §1, §2, §3

[8] = Pharmacokinetic evaluation by intravenous injection or oral gavage in mice
Method: (§4) Pharmacokinetic evaluation of the compounds of the present invention by intravenous injection or oral gavage in mice
(§5) The inventors conducted a pharmacokinetic evaluation of the compounds of this invention in mice.
(§6) The compounds of the present invention were administered to test animals in the form of a solution of 5% DMSO + 30% PEG400 + 65% saline, 10% DMSO + 10% Kolliphor HS15 + 80% Saline, 10% DMSO + 89% (25% SBE-B-CD) + (2% HCl), 20% PEG400 + 80% sterile water for injection, or 10% DMA + 10% HS15 + 30% PEG400 + 50% sterile water for injection. The animals were fasted for 12 hours before administration and had free access to water. For the intravenous administration group, the dose was 2 mg/kg/day, qd. Venous blood samples (approximately 0.15 mL) were collected at the following time points after administration: 0.083, 0.25, 0.5, 1.0, 2.0, 5.0, 7.0 and 24 hours. EDTA-K2 was pre-added to the blood collection tube as an anticoagulant. Blood samples were centrifuged at 12,000 rpm for 2 minutes, and plasma was collected and stored at -20°C or -70°C. For the intravenous administration group, the dose was 5 mg/kg/day, qd. Venous blood samples (approximately 0.15 mL) were collected at the following time points after administration: 0.25, 0.5, 1.0, 2.0, 5.0, 7.0 and 24 hours. EDTA-K2 was pre-added to the blood collection tube as an anticoagulant. Blood samples were centrifuged at 12,000 rpm for 2 minutes, and plasma was collected and stored at -20°C or -70°C.
(§7) The collected plasma samples were processed (frozen plasma was thawed at room temperature and vortexed for 15 seconds. 10-20 µL of plasma was added to 120-150 µL of acetonitrile solution containing the internal standard and vortexed for 5 minutes. The sample was centrifuged at 4,000 rpm for 5 minutes. 100 µL of the supernatant was added to 120-150 µL of methanol/water (v/v = 1/1) and mixed). The concentrations of the compounds in the plasma were analyzed by LC-MS/MS.

in vivo = details: mouse
Method: as §4, §5, §6, §7

SMILES	IC50 [1] [nM]	IC50 [2] [nM]	IC50 ([5]; Homo sapiens, AGS, 3 h) [nM]	IC50 [6] [nM]	IC50 [7] [nM]	other results
CC#Cc1nc(-c2cc(O)cc3ccc(F)c(CC)c23)c(F)c2nc(OCC34CCCN3CC(F)C4)nc(N3CCCOCC3)c12 (centres unmarked) [Compound 2]	6.4	2	2.2			IC50 (KRAS G12D-GTP & SOS1): 20.8 nM; IC50 [3]: 1.6 nM; IC50 (KRAS G12D-GTP & cRAF): 13.7 nM; IC50 [4]: 4.8 nM
CCC#Cc1nc(-c2cc(O)cc3ccc(F)c(CC)c23)c(F)c2nc(OC[C@@]34CCCN3C[C@H](F)C4)nc(N3CCCOCC3)c12 [Compound 4]			7.5			
C#Cc1c(F)ccc2cc(O)cc(-c3nc(C#CCOC4CCC4)c4c(N5CCCOCC5)nc(OC[C@@]56CCCN5C[C@H](F)C6)nc4c3F)c12 [Compound 5]			8.6			
C#Cc1c(F)ccc2cc(O)cc(-c3nc(C#C)c4c(N5CCCOCC5)nc(OC[C@@]56CCCN5C[C@H](F)C6)nc4c3F)c12 [Compound 7]	3.3	1.3	0.6	5.7	11.6	
C#Cc1nc(-c2cc(O)cc3ccc(F)c(CC)c23)c(F)c2nc(OC[C@@]34CCCN3C[C@H](F)C4)nc(N3CCCOCC3)c12 [Compound 8]			7.1			
C#Cc1nc(-c2cc(O)cc3cccc(Cl)c23)c(F)c2nc(OC[C@@]34CCCN3C[C@H](F)C4)nc(N3CCCOCC3)c12 [Compound 9]			17.2			
C#Cc1c(F)ccc2cc(O)cc(-c3nc(C#C)c4c(N5CCCOCC5)nc(OCC56CC(=C)CN5CC(=C)C6)nc4c3F)c12 [Compound 10]	1.6	0.7	0.8	1.4	6.2	
C#Cc1c(F)ccc2cc(O)cc(-c3nc(C#CC)c4c(N5CCCOCC5)nc(OCC56CCCN5CCC6)nc4c3F)c12 [Compound 11]	7.4	2	2.6	20.2	28.6	
C#Cc1c(F)ccc2cc(O)cc(-c3nc(C#CC)c4c(N5CCCOCC5)nc(OC[C@@H]5CCCN5C)nc4c3F)c12 [Compound 12]			5.8			
C#Cc1c(F)ccc2cc(O)cc(-c3nc(C#CC)c4c(N5CCCOCC5)nc(OCC56CC(=C)CN5CC(=C)C6)nc4c3F)c12 [Compound 14]			1.2			
C#Cc1c(F)ccc2cc(O)cc(-c3nc(C#CC)c4c(N5CCCOCC5)nc(OCC56CCCN5CC(F)(F)C6)nc4c3F)c12 (centres unmarked) [Compound 15]			15			
C#Cc1c(F)ccc2cc(O)cc(-c3nc(C#CC)c4c(N5CCCOCC5)nc(OC[C@@H]5C[C@@H](F)CN5C)nc4c3F)c12 [Compound 16]			8.1			
C#Cc1c(F)ccc2cc(O)cc(-c3nc(C#CC)c4c(N5CCCOCC5)nc(OCC56CCCN5CC(F)C6)nc4c3F)c12 (centres unmarked) [Compound 17]						IC50 [5]: 0.8 nM
C#Cc1c(F)ccc2cc(O)cc(-c3nc(C#CC)c4c(N5CCCOCC5)nc(OCC5(CN6CCOCC6)CC5)nc4c3F)c12 [Compound 19]			6.4			
C#Cc1c(F)ccc2cc(N)cc(-c3nc(C#CC)c4c(N5CCCOCC5)nc(OC[C@@]56CCCN5C[C@H](F)C6)nc4c3F)c12 [Compound 22]			2.8			
CC#Cc1nc(-c2cc(O)cc3cccc(Cl)c23)c(F)c2nc(OC[C@@]34CCCN3C[C@H](F)C4)nc(N3CCCOCC3)c12 [Compound 23]			6.1			
CC#Cc1nc(-c2cc(O)cc3cccc(F)c23)c(F)c2nc(OC[C@@]34CCCN3C[C@H](F)C4)nc(N3CCCOCC3)c12 [Compound 24]						IC50 ([5]; Homo sapiens, AGS): 5.4 nM
C#Cc1c(F)ccc2cc(O)cc(-c3nc(C#CC)c4c(N5CCCCC(F)C5)nc(OC[C@@]56CCCN5C[C@H](F)C6)nc4c3F)c12 (some centres unmarked) [Compound 25]	3	0.8		2.3	7.9	IC50 ([5]; Homo sapiens, AGS): 0.8 nM; F_AUCT NF ([8]; mice, 5 mg/kg/day ig administration versus 2 mg/kg/day iv): 23%; AUC(0-inf) ([8]; mouse, plasma, iv, 2 mg/kg/day): 10800 ng·h/mL; AUC(0-t) ([8]; mouse, plasma, iv, 2 mg/kg/day): 10600 ng·h/mL; Cmax ([8]; mouse, plasma, iv, 2 mg/kg/day): 9950 ng/mL; MRT last ([8]; mouse, plasma, iv, 2 mg/kg/day): 1.3 h; Tmax ([8]; mouse, plasma, iv, 2 mg/kg/day): 0.083 h; clearance ([8]; mouse, plasma, iv, 2 mg/kg/day): 3.2 mL/min/kg; half-life ([8]; mouse, plasma, iv, 2 mg/kg/day): 1.2 h; AUC(0-inf) ([8]; mouse, plasma, po, 5 mg/kg/day): 6140 ng·h/mL; AUC(0-t) ([8]; mouse, plasma, po, 5 mg/kg/day): 5960 ng·h/mL; Cmax ([8]; mouse, plasma, po, 5 mg/kg/day): 2660 ng/mL; MRT last ([8]; mouse, plasma, po, 5 mg/kg/day): 1.7 h; Tmax ([8]; mouse, plasma, po, 5 mg/kg/day): 0.42 h; half-life ([8]; mouse, plasma, po, 5 mg/kg/day): 1.3 h; pharmacokinetic properties in mice ([8]; result in words): good pharmacokinetic properties
C#Cc1c(F)ccc2cc(O)cc(-c3nc(C#CCC)c4c(N5CCCCC(F)C5)nc(OC[C@@]56CCCN5C[C@H](F)C6)nc4c3F)c12 (some centres unmarked) [Compound 26]	21.5	3.9	3.2	15.1	47.3	AUC(0-inf) (in vivo; iv, 2 mg/kg/day): 8110 ng·h/mL; AUC(0-t) (in vivo; iv, 2 mg/kg/day): 8050 ng·h/mL; Cmax (in vivo; iv, 2 mg/kg/day): 8280 ng/mL; MRT last (in vivo; iv, 2 mg/kg/day): 1.2 h; Tmax (in vivo; iv, 2 mg/kg/day): 0.083 h; Vd (in vivo; iv, 2 mg/kg/day): 0.3 L/kg; clearance (in vivo; iv, 2 mg/kg/day): 4.1 mL/min/kg; half-life (in vivo; iv, 2 mg/kg/day): 1 h; AUC(0-inf) (in vivo; po, 5 mg/kg/day): 4240 ng·h/mL; AUC(0-t) (in vivo; po, 5 mg/kg/day): 4120 ng·h/mL; Cmax (in vivo; po, 5 mg/kg/day): 1630 ng/mL; MRT last (in vivo; po, 5 mg/kg/day): 1.8 h; Tmax (in vivo; po, 5 mg/kg/day): 0.5 h; half-life (in vivo; po, 5 mg/kg/day): 1.3 h
C#Cc1c(F)ccc2cc(O)cc(-c3nc(C#CC)c4c(N5CCCCC(F)(F)C5)nc(OC[C@@]56CCCN5C[C@H](F)C6)nc4c3F)c12 [Compound 27]	4.5	2	5.2	5.1	19.5	
C#Cc1c(F)ccc2cc(O)cc(-c3nc(C#CC)c4c(N5CCCCCC5)nc(OC[C@@]56CCCN5C[C@H](F)C6)nc4c3F)c12 [Compound 29]	3.6	2.2	1.4	6.2	15.2	
C#Cc1c(F)ccc2cc(O)cc(-c3nc(C#CCC)c4c(N5CCCCCC5)nc(OC[C@@]56CCCN5C[C@H](F)C6)nc4c3F)c12 [Compound 30]			6.8			
CCC#Cc1nc(-c2cc(O)cc3ccc(F)c(CC)c23)c(F)c2nc(OC[C@@]34CCCN3C[C@H](F)C4)nc(N3CCCCC(=O)C3)c12 [Compound 33]			4.1			
CC#Cc1nc(-c2cc(O)cc3ccc(F)c(CC)c23)c(F)c2nc(OCC34CCCN3CCC4)nc(N3CCCCC(=O)C3)c12 [Compound 35]			4.4			
C#Cc1c(F)ccc2cc(O)cc(-c3nc(C#CC)c4c(N5CCOCC(F)(F)C5)nc(OC[C@@]56CCCN5C[C@H](F)C6)nc4c3F)c12 [Compound 38]	1.41	0.4	1.6	1.2	5.4	
